The values below come from patent US12077503B2, “Substituted cyclic amides and their use as herbicides” (FMC CORPORATION, priority 2015, dated 2024).

Format in all cases: in vivo
Assay [1] concerns blackgrass (Alopecurus myosuroides). The assay is described as follows: Test A postemergence. The conditions noted are these: Alopecurus myosuroides, post-emergence, 240 h, 125 g ai/ha, postemergence, visual injury rating after approximately 10 d; read-out: Blackgrass plant response rating (0 to 100 scale, 0 no effect, 100 complete control). An outline of the steps: (§1)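 Preemergence directed soil spray on seeded pots, or postemergence application to plants 2–10 cm, one- to two-leaf. Solvent mixture non-phytotoxic, with surfactant. Scored ~10 d later, visually, 0–100 vs untreated.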

Assay [2] deals with Galium (catchweed bedstraw, Galium aparine). The assay is described as follows: Test A postemergence. To be noted: Galium, post-emergence, 240 h, 125 g ai/ha, postemergence, visual injury rating after approximately 10 d; read-out: Galium plant response rating (0 to 100 scale, 0 no effect, 100 complete control). An outline of the steps: as §1
For assay [3], the system named is ryegrass, Italian (Italian ryegrass, Lolium multiflorum). Kind of assay: Test A postemergence. The conditions noted are these: Lolium multiflorum, post-emergence, 240 h, 125 g ai/ha, postemergence, visual injury rating after approximately 10 d; read-out: Ryegrass, Italian plant response rating (0 to 100 scale, 0 no effect, 100 complete control). An outline of the steps: as §1

Assay [4] deals with barnyardgrass (Echinochloa crus-galli). Kind of assay: Test A postemergence. To be noted: Echinochloa crus-galli, post-emergence, 240 h, 125 g ai/ha, postemergence, visual injury rating after approximately 10 d; read-out: Barnyardgrass plant response rating (0 to 100 scale, 0 no effect, 100 complete control). An outline of the steps: as §1
The subject of assay [5] is pigweed (Amaranthus retroflexus). The assay is described as follows: Test A postemergence. The conditions noted are these: Amaranthus retroflexus, post-emergence, 240 h, 125 g ai/ha, postemergence, visual injury rating after approximately 10 d; read-out: Pigweed plant response rating (0 to 100 scale, 0 no effect, 100 complete control). An outline of the steps: as §1
The subject of assay [6] is ragweed (common ragweed, Ambrosia elatior). Kind of assay: Test A postemergence. The conditions noted are these: Ambrosia artemisiifolia, post-emergence, 240 h, 125 g ai/ha, postemergence, visual injury rating after approximately 10 d; read-out: Ragweed plant response rating (0 to 100 scale, 0 no effect, 100 complete control). An outline of the steps:
as §1

Assay [7] deals with giant foxtail (Setaria faberii). Kind of assay: Test A postemergence. The conditions noted are these: Setaria faberi, post-emergence, 240 h, 125 g ai/ha, postemergence, visual injury rating after approximately 10 d; read-out: Foxtail, Giant plant response rating (0 to 100 scale, 0 no effect, 100 complete control). An outline of the steps:
as §1

For assay [8], the system named is wheat (Triticum aestivum). Kind of assay: Test A postemergence. To be noted: Triticum aestivum, post-emergence, 240 h, 125 g ai/ha, postemergence, visual injury rating after approximately 10 d; read-out: Wheat plant response rating (0 to 100 scale, 0 no effect, 100 complete control). An outline of the steps: as §1
In another assay the test system is corn (Zea mays). Kind of assay: Test A postemergence. The conditions noted are these: Zea mays, post-emergence, 240 h, 125 g ai/ha, postemergence, visual injury rating after approximately 10 d; read-out: Corn plant response rating (0 to 100 scale, 0 no effect, 100 complete control). An outline of the steps: as §1
The next assay relates to Kochia (Kochia scoparia). The assay is described as follows: Test A preemergence. The conditions noted are these: Bassia scoparia, pre-emergence, 240 h. An outline of the steps:
as §1

In assay [9] the test system is ryegrass, Italian (Italian ryegrass, Lolium multiflorum). Kind of assay: Test A preemergence. The conditions noted are these: Lolium multiflorum, pre-emergence, 240 h. An outline of the steps: as §1
For assay [10], the system named is barnyardgrass (Echinochloa crus-galli). The assay is described as follows: Test A preemergence. The conditions noted are these: Echinochloa crus-galli, pre-emergence, 240 h. An outline of the steps:
as §1

Assay [11] has as its system pigweed (Amaranthus retroflexus). Kind of assay: Test A preemergence. To be noted: Amaranthus retroflexus, pre-emergence, 240 h.
Assay [12] concerns ragweed (common ragweed, Ambrosia elatior). Kind of assay: Test A preemergence. To be noted: Ambrosia artemisiifolia, pre-emergence, 240 h. An outline of the steps: as §1
The subject of assay [13] is giant foxtail (Setaria faberii). The assay is described as follows: Test A preemergence. To be noted: Setaria faberi, pre-emergence, 240 h. An outline of the steps: as §1

On to `CN1C[C@H](c2cc(F)c(C(F)(F)F)c(F)c2)[C@@H](C(=O)Nc2ccccc2S(C)(=O)=O)C1=O` [Compound 900], for which the pest or weed control at 125 g/ha worked out at 40% in [1]; 20% in [2]; 40% in assay [3]; 80% in [4]; 50% in [5]; 10% in [6]. The pest or weed control at 125 g/ha in [7] was 80%; in the assay on Kochia (Kochia scoparia) (125 g ai/ha, preemergence, 0 to 100 scale where 0 is no effect and 100 is complete control, read-out: Kochia plant response rating), 90%; in assay [9] (125 g ai/ha, preemergence, 0 to 100 scale where 0 is no effect and 100 is complete control, read-out: Ryegrass, Italian plant response rating) it was 60%; in [10] (125 g ai/ha, preemergence, 0 to 100 scale where 0 is no effect and 100 is complete control, read-out: Barnyardgrass plant response rating), 90%; in [11] (125 g ai/ha, preemergence, 0 to 100 scale where 0 is no effect and 100 is complete control, read-out: Pigweed plant response rating), 80%; in [12] (125 g ai/ha, preemergence, 0 to 100 scale where 0 is no effect and 100 is complete control, read-out: Ragweed plant response rating) it was 50%. Besides, in [13] (125 g ai/ha, preemergence, 0 to 100 scale where 0 is no effect and 100 is complete control, read-out: Foxtail, Giant plant response rating), the pest or weed control at 125 g/ha stood at 90%. The plant injury at 125 g/ha (in assay [8]; in the assay with corn (Zea mays)) was 50% in each case. Also, the pest or weed control at 500 g/ha in the assay on Kochia (Kochia scoparia) (500 g ai/ha, Preemergence, visual injury vs untreated controls after approximately 10 d, read-out: Kochia plant response rating (0 to 100 scale where 0 is no effect and 100 is complete control)) amounted to 90%; in assay [9] (500 g ai/ha, Preemergence, visual injury vs untreated controls after approximately 10 d, read-out: Ryegrass, Italian plant response rating (0 to 100 scale where 0 is no effect and 100 is complete control)) it was 60%; in [10] (500 g ai/ha, Preemergence, visual injury vs untreated controls after approximately 10 d, read-out: Barnyardgrass plant response rating (0 to 100 scale where 0 is no effect and 100 is complete control)) it was 90%; in [11] (500 g ai/ha, Preemergence, visual injury vs untreated controls after approximately 10 d, read-out: Pigweed plant response rating (0 to 100 scale where 0 is no effect and 100 is complete control)), 90%; in assay [12] (500 g ai/ha, Preemergence, visual injury vs untreated controls after approximately 10 d, read-out: Ragweed plant response rating (0 to 100 scale where 0 is no effect and 100 is complete control)), 80%; in [13] (500 g ai/ha, Preemergence, visual injury vs untreated controls after approximately 10 d, read-out: Foxtail, Giant plant response rating (0 to 100 scale where 0 is no effect and 100 is complete control)), 90%.
